Experimental data reported in patent US7632813B2, “Bone densifying agent characterized by use of cathepsin K inhibitor with PTH” (Ono Pharmaceutical Co., Ltd., priority 2004, dated 2009).
Where no end group is shown, it is not given here.

Key:
Format in all cases: in vivo
[1] = tested on: ovariectomized rat osteoporosis model (OVX); assay: Experiment 1 (administration schedule 1): BMD of left proximal tibia by pQCT in OVX rats; conditions: for BMD of the left leg tibia (4 mm slice from proximal end) at intermediate autopsy: Experiment 1, FIG. 1, oral sole administration from next day of OVX, intermediate autopsy 56 days after OVX; for BMD of the left leg tibia on the 83rd day, in combination with PTH / BMD of the left leg tibia on the 83rd day, each alone: Experiment 1, FIG. 3; for BMD of the left leg tibia on the 83rd day, in combination with PTH: bone resorption inhibitor 83 days orally plus PTH 10 μg/kg s.c. from 57th day, versus PTH alone; for BMD of the left leg tibia on the 83rd day, each alone: sole administration, OVX-induced BMD loss
Text: (§1) For the purpose of clarifying the characteristics, the effect of a cathepsin K inhibitor (a bone resorption inhibitor) in combination with a type of PTH (a bone formation stimulator) was examined using an ovariectomized rat osteoporosis model (abbreviated as OVX hereafter). The effect of a bisphosphonate (BP) in combination with a type of PTH was also examined. The effects were compared with each other.
(§2) In the following examples, PTH (1-34) is abbreviated as PTH unless specified. 2) Test Method Experiment 1 (Administration Schedule 1): Administration in Combination with PTH After Repeated Administration of Bone Resorption Inhibitor
(§3) Female retired rats (F344/NSlc) were used. At the age of 6 months, 87 rats were assigned to OVX (ovariectomy) and the other 10 rats were assigned to sham operation.
(§4) Another 15 rats were assigned to OVX and 5 rats were assigned to sham operation, in order to these groups to an autopsy in the course.
(§5) To the group the compound was administered; a bone resorption inhibitor was administered orally from the next day of OVX over a period of 83 days.
[…] Other groups to which the compound was administered, a bone resorption inhibitor was administered orally, and PTH or vehicle (saline containing 0.1% BSA) was administered subcutaneously, 55 days after OVX. […] The interval between the first and the second administration was 5-7 hours.
(§6) PTH was administered by subcutaneous injection from the back three times a week by a dose of 10 μg/kg from the 57th day after OVX. The drugs were administed according to the grouping of table 1.
(§7) In the group in which the compound was administered, on the 83rd day after OVX, BMD of tibia, lumbar BMD, concentration of urinary C-terminal telopeptide of type I collagen (CTX) and serum osteocalcin (OC) were measured. In the autopsy groups, concentration of urinary CTX and serum OC were measured on samples from the 55th day.
The BMD was determined by measurement device of peripheral BMD (pQCT: peripheral Quantitative Computed Tomography, XCT-Research SA+Stratec Medizintechnik GmbH, version 5.40) with voxel size 0.12 mm. The BMD of the left proximal tibia (at a point 4 mm from the proximal end) was measured.
(§8) In order to compare the sham group and the OVX control group, t-test (EXSAS (version 6.1), ARM SYSTEX CO., LTD.); in order to compare the effectiveness of the test compounds, Tukey test (EXSAS (version 6.1), ARM SYSTEX CO., LTD.), were used respectively. Less than 5% was assumed to be a significant difference.

[2] = tested on: ovariectomized rat osteoporosis model (OVX); assay: Experiment 1: serum osteocalcin (OC) concentration, bone formation marker, in OVX rats; conditions: for serum OC concentration (bone formation marker) at intermediate autopsy: Experiment 1, FIG. 2, repeated oral administration for 55 days; for serum OC concentration on the 83rd day, in combination with PTH: combination with PTH compared with PTH sole administration
Text: as §1, §2, §3, §4, §5
On 55 days after OVX, the autopsy was done in autopsy group. Other groups to which the compound was administered, a bone resorption inhibitor was administered orally, and PTH or vehicle (saline containing 0.1% BSA) was administered subcutaneously, 55 days after OVX. […] The interval between the first and the second administration was 5-7 hours.
as §6, §7
Fifty-five days after administration, in the autopsy, collected serum was used to measure the serum OC concentration with a kit for OC measurement (BIOTRAK; Osteocalcin, rat ELISA system).
as §8

[3] = tested on: ovariectomized rat osteoporosis model (OVX); assay: Experiment 1: urinary CTX concentration, bone resorption marker, in OVX rats; conditions: Experiment 1, FIG. 4; for urinary CTX concentration on the 83rd day, combination administration with PTH: in combination with PTH
Text: For the purpose of clarifying the characteristics, the effect of a cathepsin K inhibitor (a bone resorption inhibitor) in combination with a type of PTH (a bone formation stimulator) was examined using an ovariectomized rat osteoporosis model (abbreviated as OVX hereafter). The effect of a bisphosphonate (BP) in combination with a type of PTH was also examined. The effects were compared with each other. • (1) a solution of the compound (I): […] In the following examples, PTH (1-34) is abbreviated as PTH unless specified. 2) Test Method Experiment 1 (Administration Schedule 1): Administration in Combination with PTH After Repeated Administration of Bone Resorption Inhibitor Female retired rats ([…] used. At the age of 6 months, 87 rats were assigned to OVX (ovariectomy) and the other 10 rats were assigned to sham operation. To the group the compound was administered; a bone resorption inhibitor was administered orally from the next day of OVX over a period of 83 days. […] On 55 days after OVX, the autopsy was done in autopsy group. Other groups to which the compound was administered, a bone resorption inhibitor was administered orally, and PTH or vehicle (saline containing 0.1% BSA) was administered subcutaneously, 55 days after OVX. […] The interval between the first and the second administration was 5-7 hours. PTH was administered by subcutaneous injection from the back three times a week by a dose of 10 μg/kg from the 57th day after OVX. The drugs were administed according to the grouping of table 1. In the group in which the compound was administered, on the 83rd day after OVX, BMD of tibia, lumbar BMD, concentration of urinary C-terminal telopeptide of type I collagen (CTX) and serum osteocalcin (OC) were measured. In the autopsy groups, concentration of urinary CTX and serum OC were measured on samples from the 55th day. Urine was collected before the day of an autopsy, and urinary CTX was measured with a kit for rat CTX measurement (RatLaps ELISA; nordicbioscience). In measurement of absorbance, microplate reader (SPECTRA MAX 250, Japan Molecular Devices Inc.) was used. […] In order to compare the sham group and the OVX control group, […] CO., LTD.); in order to compare the effectiveness of the test compounds, Tukey test ([…] CO., LTD.), were used respectively. Less than 5% was assumed to be a significant difference.

[4] = tested on: ovariectomized rat osteoporosis model (OVX); assay: Experiment 2 (administration schedule 2): BMD of tibia by pQCT in OVX rats; conditions: Experiment 2, FIG. 5; for BMD of the tibia on the 83rd day, each alone: 83 days from next day of OVX, sole administration
[5] = tested on: ovariectomized rat osteoporosis model (OVX); assay: Experiment 2: urinary CTX concentration in OVX rats; conditions: Experiment 2, FIG. 6

Compound	BMD of the left leg tibia (4 mm slice from proximal end) at intermediate autopsy [1]	BMD of the left leg tibia on the 83rd day, in combination with PTH [1]	BMD of the left leg tibia on the 83rd day, each alone [1]	serum OC concentration (bone formation marker) at intermediate autopsy [2]	serum OC concentration on the 83rd day, in combination with PTH ([2]; Experiment 1, FIG. 4)	urinary CTX concentration on the 83rd day, combination administration with PTH [3]	urinary CTX concentration on the 83rd day, sole administration [3]	urinary CTX inhibitory effect compared with compound (I) ([3]; sole and combination administration with PTH)	BMD of the tibia on the 83rd day, each alone [4]	inhibitory effect on urinary CTX compared with compound (I) [5]	effect on increase of BMD of tibia in combination with PTH ([4]; 83 days in combination with PTH 3 μg/kg s.c.)	urinary CTX concentration (bone resorption marker) on the 83rd day, combination administration ([5]; in combination with PTH)	urinary CTX concentration (bone resorption marker) on the 83rd day, sole administration ([5]; sole administration group)	serum OC concentration on the 83rd day, PTH sole administration ([2]; Experiment 1, FIG. 4, PTH 10 μg/kg s.c.)
NCCCC(O)(P(=O)(O)O)P(=O)(O)O [ALN, Alendronate sodium hydrate]	showed an increasing effect of BMD in the tibia	did not show any additive effect	suppressed the OVX-induced BMD loss in the tibia	decreased	significantly decreased serum OC concentration	showed a urinary CTX inhibitory effect	showed a urinary CTX inhibitory effect	weaker than that of compound (I)	inhibited the reduction of BMD of tibia caused by OVX	weaker than that of compound (I)				
CN1CCS/C1=N\NC(=O)C(=O)C(NC(=O)C1CCCCCC1)C1CCOCC1.Cl (stereo not drawn) [compound (I), N-{3-[(2Z)-2-(3-methyl-1,3-thiazolidin-2-ylidene)hydrazino]-2,3-dioxo-1-tetrahydro-2H-pyran-4-ylpropyl}cycloheptanecarboxamide hydrochloride]	showed an increasing effect of BMD in the tibia	showed an additive effect in BMD of tibia	suppressed the OVX-induced BMD loss in the tibia	not decreased	did not decrease the serum OC concentration significantly	showed an inhibitory effect	showed an inhibitory effect		inhibited the reduction of BMD of tibia caused by OVX		greater than that of ALN in combination with PTH	has an inhibitory effect on urinary CTX concentration	has an inhibitory effect on urinary CTX concentration	
human PTH (1-34) amide (SVSEIQLMHNLGKHLNSMERVEWLRKKLQDVHNF-NH2; UniProt P01270 32-65, looked up, fragment) [partial peptide of PTH, bone formation stimulator (APC Lot.N05129A1)]			suppressed the OVX-induced BMD loss in the tibia						inhibited the reduction of BMD of tibia caused by OVX					increased
